Data set [1] has as its target T1, ATP-binding cassette sub-family C member 2 (Rattus norvegicus, UniProt Q63120). In words: TP_TRANSPORTER: uptake in bile canalicular membrane vesicles (SD). The data set is classed as functional, cell membranes, Sprague-Dawley, Bile canalicular membrane vesicle.
The target of data set [2] is T1, ATP-binding cassette sub-family C member 2. In words: TP_TRANSPORTER: inhibition of DNP-SG uptake in bile canalicular membrane vesicles from SD rat. The class given is functional, cell membranes, Sprague-Dawley, Bile canalicular membrane vesicle.
For data set [3] the target is unchanged. In words: TP_TRANSPORTER: uptake in bile canalicular membrane vesicles (EHBR). The class given is functional, cell membranes, Bile canalicular membrane vesicle.
For data set [4] the target is unchanged. As to the kind of experiment: TP_TRANSPORTER: uptake in canalicular membrane vesicles of liver (EHBR). The class given is functional, cell membranes, Canalicular membrane vesicle.
For data set [5] the target is unchanged. In words: TP_TRANSPORTER: uptake in canalicular membrane vesicles of liver (SD). The data set is classed as functional, cell membranes, Sprague-Dawley, Canalicular membrane vesicle.

In ChEMBL document CHEMBL2074394, “Multispecific organic anion transporter is responsible for the biliary excretion of the camptothecin derivative irinotecan and its metabolites in rats” (J Pharmacol Exp Ther, 1997) one finds Activity and Ki data, which are given here for 4 compounds.

T1 sequence (Q63120 whole entry): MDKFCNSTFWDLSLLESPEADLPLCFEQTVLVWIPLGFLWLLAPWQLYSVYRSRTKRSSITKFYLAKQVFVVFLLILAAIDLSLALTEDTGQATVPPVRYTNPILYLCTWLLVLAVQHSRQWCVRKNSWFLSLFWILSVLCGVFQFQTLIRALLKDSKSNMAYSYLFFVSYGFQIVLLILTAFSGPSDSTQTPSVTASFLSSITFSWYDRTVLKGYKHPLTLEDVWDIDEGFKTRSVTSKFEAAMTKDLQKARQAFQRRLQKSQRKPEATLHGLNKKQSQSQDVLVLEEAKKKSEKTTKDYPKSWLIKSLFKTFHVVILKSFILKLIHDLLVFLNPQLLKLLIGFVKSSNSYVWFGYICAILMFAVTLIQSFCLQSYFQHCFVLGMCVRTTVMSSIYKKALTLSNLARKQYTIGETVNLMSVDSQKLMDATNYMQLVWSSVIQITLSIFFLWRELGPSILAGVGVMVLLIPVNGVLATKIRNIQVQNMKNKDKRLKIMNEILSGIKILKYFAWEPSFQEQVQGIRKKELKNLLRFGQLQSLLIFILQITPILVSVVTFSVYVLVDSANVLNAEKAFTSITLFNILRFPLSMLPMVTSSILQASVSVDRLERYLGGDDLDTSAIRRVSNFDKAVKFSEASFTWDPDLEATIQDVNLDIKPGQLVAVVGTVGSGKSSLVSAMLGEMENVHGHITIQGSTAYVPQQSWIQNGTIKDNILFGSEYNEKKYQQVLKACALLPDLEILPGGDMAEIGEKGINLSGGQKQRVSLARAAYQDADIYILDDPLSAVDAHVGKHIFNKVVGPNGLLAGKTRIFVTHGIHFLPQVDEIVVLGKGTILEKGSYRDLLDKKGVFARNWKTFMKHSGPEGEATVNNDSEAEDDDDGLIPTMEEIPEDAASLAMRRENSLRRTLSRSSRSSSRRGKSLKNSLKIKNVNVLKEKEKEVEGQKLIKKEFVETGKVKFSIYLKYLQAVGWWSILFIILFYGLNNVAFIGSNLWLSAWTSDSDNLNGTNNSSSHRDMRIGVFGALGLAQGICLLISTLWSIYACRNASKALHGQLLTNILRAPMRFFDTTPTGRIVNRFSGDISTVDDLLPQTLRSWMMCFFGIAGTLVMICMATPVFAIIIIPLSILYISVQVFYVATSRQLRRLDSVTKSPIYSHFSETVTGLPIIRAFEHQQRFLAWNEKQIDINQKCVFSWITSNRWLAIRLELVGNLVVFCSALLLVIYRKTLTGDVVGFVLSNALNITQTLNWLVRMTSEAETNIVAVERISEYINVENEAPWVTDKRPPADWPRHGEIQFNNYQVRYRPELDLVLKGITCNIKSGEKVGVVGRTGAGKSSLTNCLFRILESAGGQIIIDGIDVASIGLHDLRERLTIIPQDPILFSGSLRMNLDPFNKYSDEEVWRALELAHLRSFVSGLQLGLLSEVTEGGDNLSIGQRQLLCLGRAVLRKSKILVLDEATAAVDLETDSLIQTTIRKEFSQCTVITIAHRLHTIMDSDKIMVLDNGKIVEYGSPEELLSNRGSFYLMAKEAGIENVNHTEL

As usually defined, the Ki is a dissociation constant, usually derived from enzyme kinetics or from competition with a known ligand. Take `CCc1c2c(nc3ccc(OC[C@@H]4O[C@H](C(=O)O)[C@@H](O)[C@H](O)[C@H]4O)cc13)-c1cc3c(c(=O)n1C2)COC(=O)[C@]3(O)CC`: the Activity result in data set [1] and in data set [3] was “substrate [+]” each time. Besides, in data set [2], the Ki was 1.62 µM.

Consider `CCc1c2c(nc3ccc(O)cc13)-c1cc([C@@](O)(CC)C(=O)O)c(CO)c(=O)n1C2`, for which the Activity result in data set [1] and in data set [3] was “substrate [+]” in each case. The same compound gave a Ki in data set [2] of 18.3 µM.

On to `CCc1c2c(nc3ccc(OC(=O)N4CCC(N5CCCCC5)CC4)cc13)-c1cc([C@@](O)(CC)C(=O)O)c(CO)c(=O)n1C2`, for which the Activity entry in data set [4] and in data set [5] was “substrate [+]” throughout. The compound also yielded a Ki in data set [2] of 96.6 µM.

`CCc1c2c(nc3ccc(O[C@@H]4O[C@H](C(=O)O)[C@@H](O)[C@H](O)[C@H]4O)cc13)-c1cc([C@@](O)(CC)C(=O)O)c(CO)c(=O)n1C2`: the Activity entry in data set [1] and in data set [3] was “substrate [+]” in each case. This compound also gave an inhibition constant Ki in data set [2] of 1.03 µM.
